Tests used:
male Sprague-Dawley rats = assay: Induction of penile erections in male rats; type: in vivo, rat; details: 3 μg/kg intravenous; male rats observed 30 minutes
Description: Male Sprague-Dawley rats weighing 200-250 g were kept on a 12 hour on/off light cycle with food and water ad libitum. All behavioral studies were performed between 10 a.m. and 5 p.m. Groups of 6 rats were treated with peptides at a variety of doses, primarily 3 μg/kg, via intravenous administration. Immediately after administration, rats were placed into individual polystyrene cages (27 cm long, 16 cm wide, and 25 cm high) for behavioral observation. […] Using the above procedure, the mean number of penile erections for each rat on intravenous administration of 3 μg/kg was determined as shown on Table 2.

hMC5-R = molecular target: T1, hMC5-R (Homo sapiens, UniProt P33032); assay: Competitive inhibition binding assay with 125I-NDP-MSH, MC5-R; details: 1 μM peptide, HEK 293 human MC5, read-out: Percent Inhibition At 1 μM concentration MC5-R
T1 construct: expressed in transfected cells; host or cells: HEK 293 cells (membranes)
T1 sequence (P33032 whole entry): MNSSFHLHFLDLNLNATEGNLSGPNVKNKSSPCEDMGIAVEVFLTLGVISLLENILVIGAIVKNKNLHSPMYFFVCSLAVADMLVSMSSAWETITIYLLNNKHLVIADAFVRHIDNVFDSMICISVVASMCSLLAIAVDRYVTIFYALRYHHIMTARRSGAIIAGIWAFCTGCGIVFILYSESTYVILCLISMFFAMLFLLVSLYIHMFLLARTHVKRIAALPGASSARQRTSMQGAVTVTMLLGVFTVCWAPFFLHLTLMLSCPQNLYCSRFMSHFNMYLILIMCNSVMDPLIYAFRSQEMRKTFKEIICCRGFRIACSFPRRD
Description: Each assay was conducted in triplicate.
(§1) B16-F1 mouse melanoma cells were used as the source of MC1 receptors; HEK 293 cells, transfected with human melanocortin receptor sequences, were used as the source of MC3, MC4 and MC5 receptors.

hMC4-R [1] = molecular target: T2, hMC4-R (Homo sapiens, UniProt P32245); assay: Stimulation of intracellular cAMP production in transfected HEK-293 cells expressing hMC4-R; type: cell-based
T2 construct: expressed in transfected cells; whole cells for cAMP
T2 sequence (P32245 whole entry): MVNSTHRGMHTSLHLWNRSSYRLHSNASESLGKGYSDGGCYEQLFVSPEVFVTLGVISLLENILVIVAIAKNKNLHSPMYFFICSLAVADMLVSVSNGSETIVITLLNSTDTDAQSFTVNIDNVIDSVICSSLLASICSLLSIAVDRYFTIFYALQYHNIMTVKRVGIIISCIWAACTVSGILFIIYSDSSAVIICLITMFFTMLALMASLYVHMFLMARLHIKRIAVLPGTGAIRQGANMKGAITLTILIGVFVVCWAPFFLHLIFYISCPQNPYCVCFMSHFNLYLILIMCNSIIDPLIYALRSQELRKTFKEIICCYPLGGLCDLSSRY
Description: Functional assays to determine agonist or antagonist status of a cyclic peptide of the invention may be conducted by any means known in the art. In one method, a cAMP assay is performed. Human MC4-R cells are grown to confluence in 96 well plates (plating approximately 250,000 cells per well). Identical sets of cells in triplicate are treated with 0.2 mM isobutylmethylxanthine (IBMX) and the chosen concentration of the peptide or alternatively the peptide in the presence of 20 nM NDP-MSH. Cells similarly treated but with only 20 nM NDP-MSH serve as positive controls in a volume of 200 μL. A buffer blank, as a negative control, is also included. Incubation is for one hour at 37° C. after which the cells are lysed by the addition of 50 μL of a cell lysis buffer. Total cAMP accumulated in 250 μL of this solution is quantitated using a commercially available low pH cAMP assay kit (Amersham BioSciences) by the procedure specified by the kit supplier. Any peptide showing cAMP accumulation in the same range as or higher than the positive control (buffer blank in the presence of α-MSH) is considered to be an agonist. A peptide showing accumulation in the same range as the negative control (buffer blank in the absence of α-MSH) is ineffective at the test concentration if the result is similar to the positive control where α-MSH is also present in the assay. A peptide showing accumulation in the same range as the negative control is considered to be an antagonist if there is inhibition in cAMP when α-MSH is present in the assay. Similar methods may be employed for MC3-R, using MC3-R cells.

hMC4-R [2] = molecular target: T2, hMC4-R; assay: Competitive inhibition binding assay with 125I-NDP-MSH, MC4-R; details: 1 μM peptide, HEK 293 human MC4, read-out: Percent Inhibition At 1 μM concentration MC4-R
Description: Each assay was conducted in triplicate.
as §1

hMC3-R = molecular target: T3, hMC3-R (Homo sapiens, UniProt P41968); assay: Competitive inhibition binding assay with 125I-NDP-MSH, MC3-R; details: 1 μM peptide, HEK 293 human MC3, read-out: Percent Inhibition At 1 μM concentration MC3-R
T3 construct: expressed in transfected cells; host or cells: HEK 293 cells (membranes)
T3 sequence (P41968 whole entry): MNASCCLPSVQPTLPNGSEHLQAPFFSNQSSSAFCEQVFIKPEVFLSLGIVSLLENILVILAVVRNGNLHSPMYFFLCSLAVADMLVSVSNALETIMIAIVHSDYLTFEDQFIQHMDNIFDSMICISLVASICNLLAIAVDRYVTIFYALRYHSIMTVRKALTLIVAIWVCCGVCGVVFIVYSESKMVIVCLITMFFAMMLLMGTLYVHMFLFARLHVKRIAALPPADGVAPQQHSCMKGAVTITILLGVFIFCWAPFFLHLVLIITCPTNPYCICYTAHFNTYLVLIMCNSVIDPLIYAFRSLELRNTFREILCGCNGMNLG
Description: Each assay was conducted in triplicate.
as §1

[3] = molecular target: MC1-R (B16-F1 mouse melanoma cells) (Mus musculus, UniProt Q01727); assay: Competitive inhibition binding assay with 125I-NDP-MSH, MC1-R; details: 1 μM peptide, B16-F1 mouse melanoma membranes, read-out: Percent Inhibition At 1 μM concentration MC1-R
MC1-R (B16-F1 mouse melanoma cells), sequence (Q01727 whole entry): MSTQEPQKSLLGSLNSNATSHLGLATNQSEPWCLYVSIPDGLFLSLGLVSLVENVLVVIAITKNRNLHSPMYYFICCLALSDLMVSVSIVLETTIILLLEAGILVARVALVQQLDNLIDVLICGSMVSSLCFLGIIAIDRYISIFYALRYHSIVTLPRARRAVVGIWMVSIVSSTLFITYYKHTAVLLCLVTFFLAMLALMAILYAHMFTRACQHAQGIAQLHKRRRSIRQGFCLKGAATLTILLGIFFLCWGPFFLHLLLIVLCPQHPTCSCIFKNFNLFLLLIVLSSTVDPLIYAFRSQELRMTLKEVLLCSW
Description: Each assay was conducted in triplicate.
as §1

[4] = system: men with psychogenic erectile dysfunction; details: subcutaneous, 0.025 to 0.157 mg/kg, cited from earlier work

Row | Molecule | Mean PE/Rat (mean number of penile erections for each rat) (male Sprague-Dawley rats) | further results
1 | Ac-Nle-cyclo(-Asp-His-D-Phe-Arg-Nal 1-Lys)-OH | 0.33 | –
2 | Ac-Nle-cyclo(-Asp-Trp-D-Phe-Arg-Trp-Lys)-OH | 0.5 | –
3 | Ac-Nle-cyclo(-Asp-Tyr-D-Phe-Arg-Trp-Lys)-OH | 0.67 | –
4 | Ac-Nle-cyclo(-Asp-His-D-Phe-Arg-D-Trp-Lys)-OH | 0.83 | –
5 | Ac-Nle-cyclo(-Asp-Phe-D-Phe-Arg-Trp-Lys)-OH | 0.33 | –
6 | Ac-Nle-cyclo(-Asp-His-D-Phe(4-Cl)-Arg-Trp-Lys)-OH | 0.33 | –
7 | CCCC[C@H](NC(C)=O)C(=O)N[C@H]1CC(=O)NCCCC[C@@H](C(=O)O)NC(=O)[C@H](Cc2c[nH]c3ccccc23)NC(=O)[C@H](CCCCN)NC(=O)[C@@H](Cc2ccccc2)NC(=O)[C@H](Cc2c[nH]cn2)NC1=O [Ac-Nle-cyclo(-Asp-His-D-Phe-Lys-Trp-Lys)-OH] | 1.33 | inhibition at 1 µM (hMC5-R): 17%; Functional Activity at MC4-R (hMC4-R [1]): Agonist; inhibition at 1 µM (hMC4-R [2]): 46%; inhibition at 1 µM (hMC3-R): 8%; inhibition at 1 µM [3]: 86%
8 | cyclo(-Succ-His-D-Phe-Arg-Trp-Lys)-OH (FRWK; cyclic succinyl, His, D-residue prefix; printed: Phe-Arg-Trp-Lys) | – | Functional Activity at MC4-R (hMC4-R [1]): Agonist
9 | Ac-Nle-cyclo(-Asp-His-Phe-Arg-Trp-Lys)-OH | – | Functional Activity at MC4-R (hMC4-R [1]): Inactive
10 | Ac-Nle-cyclo(-Asp-D-His-D-Phe-Arg-Trp-Lys)-OH | 0.33 | –
11 | Melanotan-II | – | transient side effects [4]: nausea, stretching and yawning, and decreased appetite; mean duration of tip rigidity greater than 80% ([4]; placebo 3.0 minutes, p=0.0045): 38 min
12 | Ahx-cyclo(-Asp-His-D-Phe-Arg-Trp-Lys)-OH | 0.33 | –

— patent publication US7473760B2, “Cyclic peptide compositions for treatment of sexual dysfunction” (Palatin Technologies, Inc., priority 1999, dated 2009)
